Test results reported in US11839593B2, “Penetrating topical pain relief compositions and methods of use” (Tech Swerve LLC, priority 2019, dated 2023).

Assay: Solubility in DMSO or in DMSO and water
Conditions: isolates

CCCCCc1cc(O)c2c(c1)OC(C)(C)[C@@H]1CCC(C)=C[C@@H]21 [THC, tetrahydrocannabinol]
solubility in DMSO: soluble in DMSO
